Results: US11926602B1, “4-amino-5-(4-fluoro-3-phenoxyphenyl)-4H-1,2,4-triazole-3-thiol derivatives as antifungal agents” (KING FAISAL UNIVERSITY, priority 2023, dated 2024)
≈ marks a conversion by molar mass, not a printed value.

Key:
[1] = test system: Candida parapsilosis (ATCC RCMB 05064); test: Antifungal microdilution assay, MIC against Candida parapsilosis; assay type: cell-based; details: Lodderomyces parapsilosis, RCMB05064, 0.49-125 μg/mL tested over 48 h, read-out: Minimum inhibitory concentration C. parapsilosis
Protocol: (§1) The calculation of the minimum inhibitory concentrations (MICs) for the tested compounds was done against Candida parapsilosis (ATCC RCMB 05064); Candida albicans (ATCC RCMB 05064): Candida tropicalis (ATCC RCMB 05064); Aspergillus niger (ATCC RCMB 05064); Trichophyton rubrum (ATCC RCMB 05064). Microdilution assay was used to evaluate the tested compounds (2, 2a-2h) for their antifungal activity (Anaissie, E. J.; Paetznick, V. L.; Ensign, L. G.; Espinel-Ingroff, A.; Galgiani, J. N.; Hitchcock, C. A.; LaRocco. M.; Patterson. T.; Pfaller, M. A.; Rex, J. H.; et al. Microdilution antifungal susceptibility testing of Candida albicans and Cryptococcus neoformans with and without agitation: An eight-center collaborative study. Antimicrob. Agents Chemother. 1996, 40, 2387-2391). Different concentrations were tested from each compound; 0.49, 0.98, 1.95, 3.9, 7.81, 15.63, 31.25, 62.5, and 125 μg/mL over 48 h.
(§2) The observed antifungal activity of the present 4-amino-5-(4-fluoro-3-phenoxyphenyl)-4H-1,2,4-triazole-3-thiol (2) and its derivatives (2a-h) against various fungi are summarized below in Table 2.

[2] = test system: Candida albicans (ATCC RCMB 05064); test: Antifungal microdilution assay, MIC against Candida albicans; assay type: cell-based; details: RCMB05064, 0.49-125 μg/mL tested over 48 h, read-out: Minimum inhibitory concentration C. albicans
Protocol: as §1, §2

[3] = test system: Candida tropicalis (ATCC RCMB 05064); test: Antifungal microdilution assay, MIC against Candida tropicalis; assay type: cell-based; details: RCMB05064, 0.49-125 μg/mL tested over 48 h, read-out: Minimum inhibitory concentration C. tropicalis
Protocol: as §1, §2

[4] = test system: Aspergillus niger (ATCC RCMB 05064); test: Antifungal microdilution assay, MIC against Aspergillus niger; assay type: cell-based; details: RCMB05064, 0.49-125 μg/mL tested over 48 h, read-out: Minimum inhibitory concentration A. niger
Protocol: as §1, §2

[5] = test system: Trichophyton rubrum (ATCC RCMB 05064); test: Antifungal microdilution assay, MIC against Trichophyton rubrum; assay type: cell-based; details: RCMB05064, 0.49-125 μg/mL tested over 48 h, read-out: Minimum inhibitory concentration T. rubrum
Protocol: as §1, §2

Row | MIC [1] [µg/mL] | MIC [2] [µg/mL] | MIC [3] [µg/mL] | MIC [4] [µg/mL] | MIC [5] [µg/mL] | melting point [°C] | SMILES
1 | 1.95 (≈ 6.45 µM) | 3.9 (≈ 12.9 µM) | 3.9 (≈ 12.9 µM) | 7.81 (≈ 25.8 µM) | 3.9 (≈ 12.9 µM) | 205 to 207 | Nn1c(S)nnc1-c1ccc(F)c(Oc2ccccc2)c1 [Compound 2, 4-amino-5-(4-fluoro-3-phenoxyphenyl)-4H-1,2,4-triazole-3-thiol]
2 | 0.98 (≈ 2.51 µM) | 1.95 (≈ 4.99 µM) | 0.98 (≈ 2.51 µM) | 1.95 (≈ 4.99 µM) | 1.95 (≈ 4.99 µM) | 189 | Fc1ccc(-c2n[nH]c(=S)n2/N=C/c2ccccc2)cc1Oc1ccccc1 [Compound 2a]
3 | 15.6 (≈ 36.8 µM) | 31.2 (≈ 73.5 µM) | 62.5 (≈ 147 µM) | 31.2 (≈ 73.5 µM) | 62.5 (≈ 147 µM) | 174 | Fc1ccc(-c2n[nH]c(=S)n2/N=C/c2ccc(Cl)cc2)cc1Oc1ccccc1 [Compound 2b]
4 | 15.6 (≈ 29.8 µM) | 15.6 (≈ 29.8 µM) | 32.2 (≈ 61.5 µM) | 15.6 (≈ 29.8 µM) | 32.2 (≈ 61.5 µM) | 146 | Fc1ccc(-c2nn(CN3CCOCC3)c(=S)n2/N=C/c2ccc(Cl)cc2)cc1Oc1ccccc1 [Compound 2c]
5 | 7.81 (≈ 19.1 µM) | 7.81 (≈ 19.1 µM) | 15.6 (≈ 38.3 µM) | 7.81 (≈ 19.1 µM) | 15.6 (≈ 38.3 µM) | 172 | Fc1ccc(/C=N/n2c(-c3ccc(F)c(Oc4ccccc4)c3)n[nH]c2=S)cc1 [Compound 2d]
6 | 1.95 (≈ 4.04 µM) | 1.95 (≈ 4.04 µM) | 1.95 (≈ 4.04 µM) | 3.9 (≈ 8.08 µM) | 7.81 (≈ 16.2 µM) | 132 | Fc1ccc(-c2n[nH]c(=S)n2/N=C/c2cccc(Oc3ccccc3)c2)cc1Oc1ccccc1 [Compound 2e]
7 | 3.9 (≈ 12.3 µM) | 7.81 (≈ 24.7 µM) | 7.81 (≈ 24.7 µM) | 3.9 (≈ 12.3 µM) | 7.81 (≈ 24.7 µM) | 152 | CSc1nnc(-c2ccc(F)c(Oc3ccccc3)c2)n1N [Compound 2f, 3-(4-Fluoro-3-phenoxyphenyl)-5-(methylthio)-4H-1,2,4-triazol-4-amine]
8 | 0.49 (≈ 1.13 µM) | 0.49 (≈ 1.13 µM) | 0.49 (≈ 1.13 µM) | 0.98 (≈ 2.26 µM) | 0.98 (≈ 2.26 µM) | 136 | Nn1c(SCc2cnc(Cl)s2)nnc1-c1ccc(F)c(Oc2ccccc2)c1 [Compound 2g, 3-(((2-Chlorothiazol-5-yl)methyl)thio)-5-(4-fluoro-3-phenoxyphenyl)-4H-1,2,4-triazol-4-amine]
9 | 0.49 (≈ 1.43 µM) | 0.98 (≈ 2.86 µM) | 0.49 (≈ 1.43 µM) | 0.98 (≈ 2.86 µM) | 1.95 (≈ 5.7 µM) | 128 | C=CCSc1nnc(-c2ccc(F)c(Oc3ccccc3)c2)n1N [Compound 2h, 3-(Allylthio)-5-(4-fluoro-3-phenoxyphenyl)-4H-1,2,4-triazol-4-amine]
10 | 0.49 (≈ 1.6 µM) | 0.49 (≈ 1.6 µM) | 0.98 (≈ 3.2 µM) | 0.49 (≈ 1.6 µM) | 1.95 (≈ 6.37 µM) |  | OC(Cn1cncn1)(Cn1cncn1)c1ccc(F)cc1F [Fluconazole, reference compound]
